What was measured:
[1] = test system: OVCAR 3 cells; test: Cancer cell line proliferation assay, ATP-based cell viability (Cell Titre Glow), OVCAR 3 (CCNE1-amplified); settings: KYSE30 (normal CCNE1) GI50 vs. OVCAR 3 (CCNE1-amplified) GI50
Procedure: (§1) Cancer cell lines with either normal (KYSE-30) or amplified CCNE1 expression (OVCAR 3 —ovarian cancer) were evaluated for their sensitivity to PKMYT1 inhibitors using Cell Titre Glow assay (Promega G7573) as endpoint to assess cell proliferation. The luminescence signal was read on a PHERAStar FS microplate reader (BMG Labtech). Data analysis was performed using Microsoft Excel® and Gl50 (concentration that achieves 50% cell growth proliferation inhibition) estimates generated with GraphPad Prism v9.

[2] = test system: KYSE-30 cells; test: Cancer cell line proliferation assay, ATP-based cell viability (Cell Titre Glow), KYSE-30 (normal CCNE1); settings: Homo sapiens, KYSE-30 cells (normal CCNE1), concentration that achieves 50% cell growth proliferation inhibition, read-out: KYSE30 Gl50
Procedure: as §1

[3] = biological target: T1, Human PKMYT1 (Homo sapiens, UniProt Q99640); test: PKMYT1 biochemical ADP-Glo enzymatic assay; settings: ADP-Glo
T1 construct: Human PKMYT1 75-362 was cloned as a TEV cleavable 6xHis fusion; 6xHis (TEV cleavable) (cleaved yes); made in house; host or cells: bacterial cells
T1 sequence (Q99640 75-362): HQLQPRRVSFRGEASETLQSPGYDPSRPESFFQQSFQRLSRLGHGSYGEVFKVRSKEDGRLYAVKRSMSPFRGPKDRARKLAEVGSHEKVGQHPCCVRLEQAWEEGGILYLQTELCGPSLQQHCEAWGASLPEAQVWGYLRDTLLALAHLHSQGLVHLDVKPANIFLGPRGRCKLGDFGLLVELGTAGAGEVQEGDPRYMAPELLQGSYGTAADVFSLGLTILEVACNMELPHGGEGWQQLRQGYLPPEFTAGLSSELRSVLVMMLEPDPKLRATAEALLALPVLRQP
Summary of the method: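 Purified untagged human PKMYT1 75-362 at 15 nM final was tested in HEPES pH 7.5 with MgCl2, EGTA, Brij-35 and 1% DMSO. Intrinsic ATPase activity was measured with 500 uM ATP over 60 min at 26° C. ADP-Glo luminescence was read and IC50 fitted from 10-point, 3-fold dilution curves.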

[4] = biological target: T2, WEE1 (Homo sapiens, UniProt P30291); test: Selectivity versus WEE1 assay (ADP-Glo enzymatic assay); type: biochemical; settings: for IC50: ADP-Glo; for PKMYT1 vs. WEE1 selectivity: fold difference in selectivity for PKMYT1 over WEE1
T2 construct: purchased Thermo Fisher PR7373A
Summary of the method: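 WEE1 at 15 nM final in 50 mM HEPES pH 7.5, 10 mM MgCl2, 1 mM EGTA, 0.01% Brij-35, 1% DMSO; reaction started with 30 µM ATP, 60 min at 26 °C. ADP-Glo luminescence; IC50 from dose-response curves, replicates within 3-fold and r2 >0.9.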

[5] = 15 nM PKMYT1 kinase domain, 500 µM ATP, 60 minutes at 26° C., banded
[6] = 15 nM WEE1, 60 minutes at 26° C., banded
[7] = banded, ">N" = at least in this band but could be higher
[8] = PKMYT1 kinase domain 15 nM, banded values

T2 sequence (P30291 whole entry): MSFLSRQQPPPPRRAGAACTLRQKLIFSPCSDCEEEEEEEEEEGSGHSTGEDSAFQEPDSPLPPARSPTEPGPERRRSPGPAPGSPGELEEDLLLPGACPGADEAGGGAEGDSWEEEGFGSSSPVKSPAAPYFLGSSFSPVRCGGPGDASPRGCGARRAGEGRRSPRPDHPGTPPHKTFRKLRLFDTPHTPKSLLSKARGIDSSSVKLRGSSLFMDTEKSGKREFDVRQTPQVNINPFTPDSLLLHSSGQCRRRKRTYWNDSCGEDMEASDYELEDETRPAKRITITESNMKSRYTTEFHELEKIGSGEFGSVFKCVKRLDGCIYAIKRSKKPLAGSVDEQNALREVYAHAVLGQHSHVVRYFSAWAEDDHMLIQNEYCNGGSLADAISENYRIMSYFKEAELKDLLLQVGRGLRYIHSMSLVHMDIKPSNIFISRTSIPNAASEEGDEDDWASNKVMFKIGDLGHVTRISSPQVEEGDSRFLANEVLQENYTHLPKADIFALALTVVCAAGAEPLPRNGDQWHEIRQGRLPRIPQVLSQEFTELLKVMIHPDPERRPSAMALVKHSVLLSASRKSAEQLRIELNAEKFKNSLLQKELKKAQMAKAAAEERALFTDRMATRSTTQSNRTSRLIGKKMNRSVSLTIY

C=CC(=O)Nc1ccc(C)c(Nc2ncc(C(=O)Nc3c(C)ccc(O)c3C)s2)n1 [BAA-341, 2-((6-Acrylamido-3-methylpyridin-2-yl)amino)-N-(3-hydroxy-2,6-dimethylphenyl)thiazole-5-carboxamide]
Selectivity ratio KYSE30 Gl50 vs. OVCAR3 Gl50 [1]: X (3-20 fold) | GI50 [2]: 500 to 5000 nM | IC50 [3, 5]: < 50 nM | IC50 [4, 6]: 1000 to 11000 nM | PKMYT1 vs. WEE1 selectivity [4, 7]: X (100-<1000 fold)

Cc1ccc(O)c(C)c1NC(=O)c1cnc(Nc2cc(C(F)(F)F)nc(NCCC(C)(C)C)n2)s1 [BAA-322, 2-((2-((3,3-dimethylbutyl)amino)-6-(trifluoromethyl)pyrimidin-4-yl)amino)-N-(3-hydroxy-2,6-dimethylphenyl)thiazole-5-carboxamide]
Selectivity ratio KYSE30 Gl50 vs. OVCAR3 Gl50 [1]: Y (>20 fold) | GI50 [2]: 500 to 5000 nM | IC50 [3, 5]: 50 to 1000 nM | IC50 [4, 6]: > 11000 nM | PKMYT1 vs. WEE1 selectivity [4, 7]: X (100-<1000 fold)

Cc1ccc(O)c(C)c1NC(=O)c1cnc(Nc2cccc(NC(=O)C(C)(C)C)n2)s1 [BAA-339, N-(3-Hydroxy-2.6-dimethylphenyl)-2-((6-pivalamidopyridin-2-yl)amino)thiazole-5-carboxamide]
Selectivity ratio KYSE30 Gl50 vs. OVCAR3 Gl50 [1]: Y (>20 fold) | GI50 [2]: 500 to 5000 nM | IC50 [3, 5]: < 50 nM | IC50 [4, 6]: > 11000 nM | PKMYT1 vs. WEE1 selectivity [4, 7]: Y (1000-5000 fold)

Cc1ccc(O)c(C)c1NC(=O)c1cnc(Nc2ncnn3cccc23)s1 [BAA-450, N-(3-hydroxy-2,6-dimethylphenyl)-2-(pyrrolo[2,1-f][1,2,4]triazin-4-ylamino)thiazole-5-carboxamide]
Selectivity ratio KYSE30 Gl50 vs. OVCAR3 Gl50 [1]: X (3-20 fold) | GI50 [2]: > 5000 nM | IC50 [3, 8]: < 50 nM | IC50 ([4]; WEE1 15 nM, banded values): 1000 to 11000 nM | PKMYT1 vs. WEE1 selectivity ([4]; banded): X (100-<1000 fold)

CCCn1nc(Nc2ncc(C(=O)Nc3c(C)ccc(O)c3C)s2)c2ccccc21 [BAA-460, N-(3-hydroxy-2,6-dimethylphenyl)-2-((1-propyl-1H-indazol-3-yl)amino)thiazole-5-carboxamide]
Selectivity ratio KYSE30 Gl50 vs. OVCAR3 Gl50 [1]: Y (>20 fold) | GI50 [2]: 500 to 5000 nM | IC50 [3, 8]: 50 to 1000 nM | IC50 ([4]; WEE1 15 nM, banded values): 1000 to 11000 nM | PKMYT1 vs. WEE1 selectivity ([4]; banded): X (100-<1000 fold)

CCCN(C)C(=O)Cn1cc(C)c(Nc2ncc(C(=O)Nc3c(C)ccc(O)c3C)s2)n1 [BAA-491, N-(3-hydroxy-2,6-dimethylphenyl)-2-((4-methyl-1-(2-(methyl(propyl)amino)-2-oxoethyl)-1H-pyrazol-3-yl)amino)thiazole-5-carboxamide]
Selectivity ratio KYSE30 Gl50 vs. OVCAR3 Gl50 [1]: Y (>20 fold) | GI50 [2]: > 5000 nM | IC50 [3, 8]: < 50 nM | IC50 ([4]; WEE1 15 nM, banded values): 1000 to 11000 nM | PKMYT1 vs. WEE1 selectivity ([4]; banded): X (100-<1000 fold)

CCN(CC)C(=O)C(C)n1nc(Nc2ncc(C(=O)Nc3c(C)ccc(O)c3C)s2)cc1C (centres unmarked) [BAA-509, 2-((1-(1-(diethylamino)-1-oxopropan-2-yl)-5-methyl-1H-pyrazol-3-yl)amino)-N-(3-hydroxy-2,6-dimethylphenyl)thiazole-5-carboxamide]
Selectivity ratio KYSE30 Gl50 vs. OVCAR3 Gl50 [1]: Y (>20 fold) | GI50 [2]: > 5000 nM | IC50 [3, 8]: 50 to 1000 nM | IC50 ([4]; WEE1 15 nM, banded values): > 11000 nM | PKMYT1 vs. WEE1 selectivity ([4]; banded): X (100-<1000 fold)

COc1ccc(NC(=O)C(C)(C)C)nc1Nc1ncc(C(=O)Nc2c(C)ccc(O)c2C)s1.Cl [BAA-330, N-(3-Hydroxy-2.6-dimethylphenyl)-2-((3-methoxy-6-pivalamidopyridin-2-yl)amino)thiazole-5-carboxamide hydrochloride]
Selectivity ratio KYSE30 Gl50 vs. OVCAR3 Gl50 [1]: Y (>20 fold) | GI50 [2]: 500 to 5000 nM | IC50 [3, 5]: < 50 nM | IC50 [4, 6]: > 11000 nM | PKMYT1 vs. WEE1 selectivity [4, 7]: Y (1000-5000 fold)

Cc1cn(-c2cc(Cl)cnc2F)nc1Nc1ncc(C(=O)Nc2c(C)ccc(O)c2C)s1 [BAA-377, 2-((1-(5-chloro-2-fluoropyridin-3-yl)-4-methyl-1H-pyrazol-3-yl)amino)-N-(3-hydroxy-2,6-dimethylphenyl)thiazole-5-carboxamide]
Selectivity ratio KYSE30 Gl50 vs. OVCAR3 Gl50 [1]: X (3-20 fold) | GI50 [2]: 500 to 5000 nM | IC50 [3, 5]: 50 to 1000 nM | IC50 [4, 6]: 1000 to 11000 nM | PKMYT1 vs. WEE1 selectivity [4, 7]: W (10-<100 fold)

Cc1ccc(O)c(C)c1NC(=O)c1cnc(Nc2ccn(CC(C)(C)O)n2)s1 [BAA-038]
Selectivity ratio KYSE30 Gl50 vs. OVCAR3 Gl50 [1]: Y (>20 fold) | GI50 [2]: > 5000 nM | IC50 [3, 5]: < 50 nM | IC50 [4, 6]: 1000 to 11000 nM | PKMYT1 vs. WEE1 selectivity [4, 7]: X (100-<1000 fold)

Cc1c(O)cc(Br)c(C)c1NC(=O)c1cnc(Nc2nn(C3CCS(=O)(=O)C3)c(C)c2Br)s1 (centres unmarked) [BAA-557, 2-((4-Bromo-1-(1,1-dioxidotetrahydrothiophen-3-yl)-5-methyl-1H-pyrazol-3-yl)amino)-N-(3-bromo-5-hydroxy-2.6-dimethylphenyl)thiazole-5-carboxamide]
Selectivity ratio KYSE30 Gl50 vs. OVCAR3 Gl50 [1]: Y (>20 fold) | GI50 [2]: > 5000 nM | IC50 [3, 8]: 1000 to 11000 nM

Cc1conc1Nc1ncc(C(=O)Nc2c(C)ccc(O)c2C)s1 [BAA-440, N-(3-hydroxy-2,6-dimethylphenyl)-2-((4-methylisoxazol-3-yl)amino)thiazole-5-carboxamide]
IC50 [3, 8]: < 50 nM | IC50 ([4]; WEE1 15 nM, banded values): 1000 to 11000 nM | PKMYT1 vs. WEE1 selectivity ([4]; banded): X (100-<1000 fold)

CCc1c(O)ccc(C)c1NC(=O)c1cnc(Nc2ccn(C)n2)s1 [BAA-469, N-(2-Ethyl-3-hydroxy-6-methylphenyl)-2-((1-methyl-1H-pyrazol-3-yl)amino)thiazole-5-carboxamide]
IC50 [3, 8]: 50 to 1000 nM | IC50 ([4]; WEE1 15 nM, banded values): > 11000 nM | PKMYT1 vs. WEE1 selectivity ([4]; banded): X (100-<1000 fold)

Cc1ccc(O)c(C)c1NC(=O)c1cnc(Nc2cc(C)n(CCC#N)n2)s1 [BAA-518, 2-((1-(2-cyanoethyl)-5-methyl-1H-pyrazol-3-yl)amino)-N-(3-hydroxy-2,6-dimethylphenyl)thiazole-5-carboxamide]
IC50 [3, 8]: < 50 nM | IC50 ([4]; WEE1 15 nM, banded values): 1000 to 11000 nM | PKMYT1 vs. WEE1 selectivity ([4]; banded): W (10-<100 fold)

Cc1ccc(O)c(C)c1NC(=O)c1cnc(Nc2cc(C(=O)OC(C)(C)C)n(C)n2)s1 [BAA-253, tert-butyl 3-((5-((3-hydroxy-2,6-dimethylphenyl)carbamoyl)thiazol-2-yl)amino)-1-methyl-1H-pyrazole-5-carboxylate]
IC50 [3, 5]: 50 to 1000 nM | IC50 [4, 6]: > 11000 nM | PKMYT1 vs. WEE1 selectivity [4, 7]: X (100-<1000 fold)

Cc1ccc(O)c(C)c1NC(=O)c1cnc(Nc2cccc(C(=O)N3CC(F)(F)C(F)(F)C3)c2)s1 [BAA-261, N-(3-hydroxy-2,6-dimethylphenyl)-2-((3-(3,3,4,4-tetrafluoropyrrolidine-1-carbonyl)phenyl)amino)thiazole-5-carboxamide]
IC50 [3, 5]: 50 to 1000 nM | IC50 [4, 6]: > 11000 nM | PKMYT1 vs. WEE1 selectivity [4, 7]: X (100-<1000 fold)

Cc1ccccc1Nc1ncc(C(=O)Nc2c(C)ccc(O)c2C)s1 [BAA-483, N-(3-hydroxy-2,6-dimethylphenyl)-2-(o-tolylamino)thiazole-5-carboxamide]
IC50 [3, 8]: 50 to 1000 nM | IC50 ([4]; WEE1 15 nM, banded values): > 11000 nM | PKMYT1 vs. WEE1 selectivity ([4]; banded): X (100-<1000 fold)

Cc1ccc(O)c(C)c1NC(=O)c1cnc(Nc2ccn(CC(=O)NCC3CCNCC3)n2)s1 [BAA-226]
IC50 [3, 5]: < 50 nM | IC50 [4, 6]: > 11000 nM | PKMYT1 vs. WEE1 selectivity [4, 7]: X (100-<1000 fold)

Cc1ccc(O)c(C)c1NC(=O)c1cnc(Nc2nn(C)c3c2CCC3)s1 [BAA-247, N-(3-hydroxy-2,6-dimethylphenyl)-2-((1-methyl-1,4,5,6-tetrahydrocyclopenta[c]pyrazol-3-yl)amino)thiazole-5-carboxamide]
IC50 [3, 5]: 50 to 1000 nM | IC50 [4, 6]: > 11000 nM | PKMYT1 vs. WEE1 selectivity [4, 7]: Y (1000-5000 fold)

Cc1ccc(O)c(C)c1NC(=O)c1cnc(N[C@H](C)c2ccccc2)s1 [BAA-354, (R)-N-(3-hydroxy-2,6-dimethylphenyl)-2-((1-phenylethyl)amino) thiazole-5-carboxamide]
IC50 [3, 5]: 1000 to 11000 nM | IC50 [4, 6]: > 11000 nM | PKMYT1 vs. WEE1 selectivity [4, 7]: W (10-<100 fold)

Cc1ccc(O)c(C)c1NC(=O)c1cnc(Nc2ccn(CC(=O)N3CCN(C(=O)N(C)C)CC3)n2)s1 [BAA-154]
IC50 [3, 5]: < 50 nM | IC50 [4, 6]: > 11000 nM | PKMYT1 vs. WEE1 selectivity [4, 7]: Y (1000-5000 fold)

CCC(=O)NCCCNc1ncc(C(=O)Nc2c(C)ccc(O)c2C)s1 [BAA-076, N-(3-hydroxy-2,6-dimethyl-phenyl)-2-[3-(propanoylamino)propylamino]thiazole-5-carboxamide]
IC50 [3, 5]: 1000 to 11000 nM | IC50 [4, 6]: > 11000 nM | PKMYT1 vs. WEE1 selectivity [4, 7]: >W (10-<100 fold)

Source: patent US20260297042A1, “BIARYLAMIDE DERIVATIVES AND THEIR USE AS PKMYT1 INHIBITORS” (CANCER RESEARCH TECHNOLOGY LIMITED, priority 2023, published 2026)
